Patent US11584744B2 (UNIVERSITY OF WASHINGTON, priority 2017, dated 2023)
Converted amounts (≈) assume the structure as drawn. Where two headings read alike, the source gives them in different places.

Columns and labels:
[1] = system: S. aureus; assay: Serum shift assays (MIC with and without 50% human serum); assay type: cell-based, Staphylococcus aureus; conditions: Staphylococcus aureus
Protocol: Serum shift assays: To assess the role of protein binding on compound susceptibility, MIC determinations were performed in triplicate in the presence and absence of 50% human serum. Serial threefold dilutions of 2× compound were generated in MHB and aliquoted onto 96 well plates with a DMSO limit of 0.5%. Bacteria were adjusted to 1*10^8 CFUs/mL in MHB, then further diluted 1:100 in MHB and 100% heat deactivated filter sterilized pooled human serum. Fifty microliters were added to each well of the corresponding plates, and the plates were incubated at 37° C. for ˜20 h. The lowest concentration causing ≥90% growth inhibition was recorded as the MIC.

[2] = system: S. aureus (ATCC 29213); assay type: cell-based, Staphylococcus aureus; conditions: 8× the MIC
Protocol: Resistance frequency rates determination: The spontaneous resistance frequency rates to test compounds was determined according to published methods. Agar selection plates were made by adding compound from DMSO stocks into molten Mueller Hinton agar in a 55° C. water bath. […] The final DMSO concentration was <0.1% per plate. Plates were dried in a sterile hood for 30 minutes prior to overnight storage at 4° C., and pre-warmed in the 37° C. incubator for 1 hour prior to assay.
A fresh overnight culture was diluted 1:50 in MHB and grown at 37° C. with shaking (150 rpm) until reaching an OD600 of 0.4 correlating to ˜2×10^9 CFUs/mL. Approximately 3 mL for a total of 6*10^9 CFUs were distributed onto 4 plates for each compound. Plates were incubated at 37° C. for 72 h prior to counting of colonies. The starting inoculum was also serially diluted and plated to quantify initial bacterial load. The resistance frequency was determined as the number of compound-resistant colonies divided by the total colonies plated.
Resistance frequency rates: The propensity for S. aureus to develop resistance to MetRS inhibitors was also studied (Table 6).

[3] = system: S. aureus (ATCC 29213); assay: MBC determinations (with MIC); assay type: cell-based; conditions: Staphylococcus aureus, ATCC29213, S. aureus (ATCC 29213)
Protocol: Maximum DMSO concentrations were 0.5%. […] Each experiment's inoculum was serially diluted and plated on TSA to count competent cells. Cultures were incubated at 37° C. for at least 20 h and plated on TSA for CFU determination.
MIC/MBC: Measurements of minimum bactericidal concentrations (MBCs) were done with the S. aureus strain ATCC 29213 (Table 5).

[4] = system: E. faecium VRE (ATCC 51559); assay: MIC susceptibility testing; assay type: cell-based, Enterococcus faecium; conditions: E. faecium ATCC 51559; for MIC: Enterococcus faecium, read-out: (I) E. faecium (ATCC 51559) MIC
Outline: (§1)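 CLSI broth microdilution in triplicate, 5×10^5 CFU/mL final, ≤0.5% DMSO; MHB for S. aureus, CA-MHB for E. coli and E. faecium, CA-MHB plus 3% laked horse blood for S. pyogenes (5% CO2).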

[5] = target: MetRS (C. parvum) (Cryptosporidium parvum, UniProt Q5CVN0); assay: MetRS (C. parvum) enzyme inhibition; assay type: biochemical; conditions: read-out: (C) MetRS (C. parvum) IC50
[6] = system: T. cruzi; assay: T. cruzi growth inhibition; assay type: cell-based, Trypanosoma cruzi; conditions: read-out: (E) T. cruzi EC50
[7] = system: S. aureus MRSA (ATCC 33591); assay: MIC susceptibility testing; assay type: cell-based, Staphylococcus aureus; conditions: MRSA ATCC33591; for MIC: Staphylococcus aureus, read-out: (G) MRSA (ATCC33591) MIC
Outline: as §1

[8] = system: G. lamblia (ATCC GL50803); assay: G. lamblia growth inhibition; assay type: cell-based; conditions: Giardia duodenalis, read-out: (K) G. lamblia (ATCC GL50803) EC50
[9] = system: T. brucei; assay: T. brucei growth inhibition; assay type: cell-based, Trypanosoma brucei; conditions: read-out: (D) T. brucei EC50
[10] = target: recombinant S. aureus MetRS enzyme (Staphylococcus aureus, UniProt A0A0H2XID2); assay: Inhibition of SaMetRS, ATP depletion assay; assay type: biochemical; conditions: read-out: (B) MetRS (S. aureus) IC50
Outline: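 N-terminal 6-His S. aureus MetRS (25 nM) was pre-incubated 15 min at room temperature with compound, 400 μg/mL E. coli tRNA and pyrophosphatase in HEPES-KOH pH 7.9, 2% DMSO. Reaction started with 150 nM ATP plus 20 μM L-methionine, ran 120 min; remaining ATP read by Kinase-Glo luminescence, IC50 by sigmoidal nonlinear regression.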

[11] = system: S. aureus MSSA (ATCC 29213); assay: MIC susceptibility testing; assay type: cell-based, Staphylococcus aureus; conditions: S. aureus ATCC 29213; for MIC: Staphylococcus aureus, read-out: (F) S. aureus (ATCC 29213) MIC
[12] = system: C. parvum; assay: C. parvum growth inhibition; assay type: cell-based, Cryptosporidium parvum; conditions: read-out: (J) C. parvum EC50
[13] = target: T1, MetRS (T. brucei) (Trypanosoma brucei brucei, UniProt Q38C91); assay: MetRS (T. brucei) enzyme inhibition; assay type: biochemical
T1 sequence (Q38C91 1-773): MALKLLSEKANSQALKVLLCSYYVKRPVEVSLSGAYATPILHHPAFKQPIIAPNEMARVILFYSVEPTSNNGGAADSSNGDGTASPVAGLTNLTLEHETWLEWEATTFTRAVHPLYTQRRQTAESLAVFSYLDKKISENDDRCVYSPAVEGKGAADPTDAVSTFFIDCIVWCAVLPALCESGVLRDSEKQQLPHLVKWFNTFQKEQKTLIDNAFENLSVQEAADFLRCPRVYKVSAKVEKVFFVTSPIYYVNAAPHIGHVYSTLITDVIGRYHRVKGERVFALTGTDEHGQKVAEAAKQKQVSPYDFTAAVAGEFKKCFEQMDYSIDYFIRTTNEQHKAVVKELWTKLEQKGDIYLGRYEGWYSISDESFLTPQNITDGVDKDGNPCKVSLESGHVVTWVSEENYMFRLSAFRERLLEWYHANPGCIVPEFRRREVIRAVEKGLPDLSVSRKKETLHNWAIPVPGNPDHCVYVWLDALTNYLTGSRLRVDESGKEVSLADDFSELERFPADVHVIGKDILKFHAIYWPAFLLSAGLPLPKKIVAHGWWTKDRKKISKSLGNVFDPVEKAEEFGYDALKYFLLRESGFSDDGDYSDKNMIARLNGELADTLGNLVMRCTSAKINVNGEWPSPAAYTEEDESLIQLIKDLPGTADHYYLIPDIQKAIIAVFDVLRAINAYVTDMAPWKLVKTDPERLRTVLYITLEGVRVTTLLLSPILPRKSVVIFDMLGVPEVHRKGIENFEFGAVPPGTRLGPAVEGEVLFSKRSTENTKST

Sequence of MetRS (C. parvum) (Q5CVN0 entry or part of it): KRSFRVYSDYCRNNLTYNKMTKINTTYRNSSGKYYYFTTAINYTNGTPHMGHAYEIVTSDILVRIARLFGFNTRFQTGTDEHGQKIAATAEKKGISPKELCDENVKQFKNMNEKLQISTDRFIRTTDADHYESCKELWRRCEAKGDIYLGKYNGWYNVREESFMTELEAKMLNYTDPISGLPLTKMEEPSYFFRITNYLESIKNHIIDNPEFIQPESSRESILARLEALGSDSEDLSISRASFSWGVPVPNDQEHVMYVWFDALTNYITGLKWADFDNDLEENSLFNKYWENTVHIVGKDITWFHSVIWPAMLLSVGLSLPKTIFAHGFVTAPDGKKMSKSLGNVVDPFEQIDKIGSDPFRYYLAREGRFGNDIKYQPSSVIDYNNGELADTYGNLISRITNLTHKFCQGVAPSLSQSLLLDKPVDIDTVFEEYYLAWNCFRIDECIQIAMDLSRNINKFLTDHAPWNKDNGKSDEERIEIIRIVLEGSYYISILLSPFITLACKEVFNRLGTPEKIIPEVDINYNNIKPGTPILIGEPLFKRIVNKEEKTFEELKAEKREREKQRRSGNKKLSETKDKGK

| Compound | MIC [4] | IC50 [5] | EC50 ([6]; Trypanosoma cruzi) | MIC [7] | EC50 [8] | EC50 ([9]; Trypanosoma brucei) | EC50 [9] | EC50 ([12]; Cryptosporidium parvum) | EC50 [12] | (I) E. faecium (ATCC 51559) MIC [4] | EC50 [6] | IC50 [10] | MIC [11] | IC50 [13] | other results |
| --- | --- | --- | --- | --- | --- | --- | --- | --- | --- | --- | --- | --- | --- | --- | --- |
| CO[C@@H]1[C@@H](OC(N)=O)[C@@H](O)[C@H](Oc2ccc3c(O)c(NC(=O)c4ccc(O)c(CC=C(C)C)c4)c(=O)oc3c2C)OC1(C)C [NOV, novobiocin] |  |  |  |  |  |  |  |  |  |  |  |  |  |  | MIC ([1]; 50% human serum, read-out: Avg MIC ± SEM (+50% serum)): 12.9 ± 1.97 µg/mL; MIC ([1]; no serum, read-out: Avg MIC ± SEM (no serum)): 0.081 ± 0.02 µg/mL; Resistance frequency (Expt. 2) ([2]; 72 h): 1.58 × 10^−8; Resistance frequency (average or greater #) ([2]; two independent experiments): 1.58 × 10^−8; MIC ([3]; MBC experiment (Table 5), read-out: MIC): 0.156 µg/mL (≈ 0.255 µM); MBC ([3]; concentration killing 99.9% of inoculum, read-out: MBC): 5 µg/mL (≈ 8.16 µM) |
| COc1ccc(-c2cccc3nc(Cc4nc5nc(F)ccc5[nH]4)cn23)c(Cl)c1 [Compound 2122, 5-(2-chloro-4-methoxyphenyl)-2-({5-fluoro-1H-imidazo[4,5-b]pyridin-2-yl}methyl)imidazo[1,2-a]pyridine] | 0.263 µg/mL (≈ 0.645 µM) | < 40 nM | 703 nM | 0.909 µg/mL (≈ 2.23 µM) | 220 nM | 58.5 nM |  | 976 nM | 597 nM |  |  | < 25 nM | 0.419 µg/mL (≈ 1.03 µM) | < 40 nM |  |
| COc1ccc(-c2cccc3nc(Cc4nc5nc(Cl)ccc5[nH]4)cn23)c(Cl)c1 [Compound 2119, 2-({5-chloro-1H-imidazo[4,5-b]pyridin-2-yl}methyl)-5-(2-chloro-4-methoxyphenyl)imidazo[1,2-a]pyridine] | 0.727 µg/mL (≈ 1.71 µM) | < 40 nM | 196 nM | 1.04 µg/mL (≈ 2.45 µM) | 60 nM | 17.9 nM | 29.3 nM | 480 nM | 633 nM |  |  | < 25 nM | 0.285 µg/mL (≈ 0.672 µM) | < 40 nM |  |
| CCn1c(Cc2ccc(Cl)cc2Cl)cn(Cc2nc3ccc(Cl)nc3[nH]2)c1=O [Compound 2067, 1-({5-chloro-1H-imidazo[4,5-b]pyridin-2-yl}methyl)-4-[(2,4-dichlorophenyl)methyl]-3-ethyl-2,3-dihydro-1H-imidazol-2-one] | > 2 µg/mL | < 40 nM | 16.7 nM | 1.35 µg/mL (≈ 3.09 µM) | 670 nM |  |  |  |  |  | 32.3 nM | < 25 nM |  | < 40 nM | (G) MRSA (ATCC33591) MIC [7]: 1.16 µg/mL |

Continued, in another order:

| MIC [4] | IC50 [5] | EC50 ([6]; Trypanosoma cruzi) | MIC [7] | EC50 [8] | EC50 ([9]; Trypanosoma brucei) | EC50 [9] | EC50 ([12]; Cryptosporidium parvum) | EC50 [12] | (I) E. faecium (ATCC 51559) MIC [4] | EC50 [6] | Compound | IC50 [10] | MIC [11] | IC50 [13] | other results |
| --- | --- | --- | --- | --- | --- | --- | --- | --- | --- | --- | --- | --- | --- | --- | --- |
| 0.147 µg/mL (≈ 0.317 µM) | < 40 nM | 207 nM | 0.186 µg/mL (≈ 0.401 µM) | 20 nM | 23.3 nM | 27.8 nM |  |  |  |  | COc1ccc(-c2cccc3c2CN(Cc2nc4c(C#N)c(Cl)ccc4[nH]2)C3=O)c(Cl)c1 [Compound 2233, 5-chlor0-2-((4-(2-chloro-4-methoxyphenyl)-1-oxoisoindolin-2-yl)methyl)-1H-benzo[d]imidazole-4-carbonitrile] |  |  |  |  |
| 0.599 µg/mL (≈ 1.17 µM) | < 40 nM | 112 nM | 1.81 µg/mL (≈ 3.55 µM) | 50 nM | 8.97 nM | 11.8 nM | 531 nM | 800 nM | 0.847 µg/mL |  | COc1ccc(Cc2cn(Cc3nc4c(Cl)c(Cl)ccc4[nH]3)c(=O)n2CC(C)(C)O)c(Cl)c1 [Compound 2242, 4-[(2-chloro-4-methoxyphenyl)methyl]-1-[(6,7-dichloro-1H-1,3-benzodiazol-2-yl)methyl]-3-(2-hydroxy-2-methylpropyl)-2,3-dihydro-1H-imidazol-2-one] |  |  |  |  |
| 0.0765 µg/mL (≈ 0.174 µM) | < 40 nM | 28 nM | 0.165 µg/mL (≈ 0.376 µM) | 10 nM |  |  | 211 nM | 196 nM | 0.134 µg/mL | 39.6 nM | COc1ccc(-c2cccc3c2CN(Cc2nc4nc(Cl)ccc4[nH]2)C3=O)c(Cl)c1 [Compound 2230, 2-((5-chloro-1H-imidazo[4,5-b]pyridin-2-yl)methyl)-4-(2-chloro-4-methoxyphenyl)isoindolin-1-one] |  | 0.393 µg/mL (≈ 0.895 µM) |  | (F) S. aureus (ATCC 29213) MIC [11]: 0.304 µg/mL |
|  | < 40 nM | 220 nM | 1.4 µg/mL (≈ 3.22 µM) | 3850 nM |  |  | 610 nM | 434 nM |  |  | CC(C)n1c(Cc2ccc(Cl)cc2Cl)cn(Cc2nc3ccc(F)nc3[nH]2)c1=O [Compound 2080, 4-[(2,4-dichlorophenyl)methyl]-1-({5-fluoro-1H-imidazo[4,5-b]pyridin-2-yl}methyl)-3-(propan-2-yl)-2,3-dihydro-1H-imidazol-2-one] |  | 0.999 µg/mL (≈ 2.3 µM) | < 40 nM |  |
| 0.0141 µg/mL (≈ 0.0278 µM) | < 40 nM | 5.7 nM | 0.0578 µg/mL (≈ 0.114 µM) | 20 nM | < 0.91 nM | 0.68 nM |  |  | 0.0122 µg/mL | 6.83 nM | COc1cc(Cl)c(Cc2cn(Cc3nc4nc(Cl)ccc4[nH]3)c(=O)n2CC(C)(C)O)cc1OC [Compound 2240, 1-({5-chloro-1H-imidazo[4,5-b]pyridin-2-yl}methyl)-4-[(2-chloro-4,5-dimethoxyphenyl)methyl]-3-(2-hydroxy-2-methylpropyl)-2,3-dihydro-1H-imidazol-2-one] |  |  |  |  |
